Test results from patent US5059589A, “Glaucoma treatment” (Abbott Laboratories, priority 1990, dated 1991).

Key:
[1] = tested on: intraocular pressure in rabbits; assay: Topically administered Compound V alone and in combination with timolol on intraocular pressure of rabbits; type: in vivo, rabbit; settings: topical, alone, 0.03%
Protocol: (§1) The antiglaucoma activity of the compounds was tested by measuring the effect on intraocular pressure in rabbits as described by Tinjum, A.M., Acta Ophthalmologica, 50, 677 (1972). Male albino, New Zealand rabbits were placed in restraining devices and the intraocular pressure was measured with an applamatic tonometer. […]

[2] = tested on: intraocular pressure in rabbits; assay: Dose response study of topically administered Compound V and timolol on intraocular pressure of rabbits; type: in vivo, rabbit; settings: topical
Protocol: as §1

## COc1ccc(CC(NC(=O)CC(C)(C)N)C(=O)NC(Cc2cnc[nH]2)C(=O)N[C@@H](CC2CCCCC2)[C@@H](O)[C@@H](O)CC(C)C)cc1 (stereo partly drawn) [Compound V, H-((beta,beta-dimethyl)-beta Ala)-(4-OCH3)Phe-His amide of 2(S)-amino 1-cyclohexyl 3(R),4(S) dihydroxy-6-methylheptane]
[1]; 5 minutes after administration
  Mean Intraocular Pressure in mmHg: 10.4 mmHg
[1]; 15 minutes after administration
  Mean Intraocular Pressure in mmHg: 10.3 mmHg
[1]; 30 minutes after administration
  Mean Intraocular Pressure in mmHg: 10.1 mmHg
[1]; 60 minutes after administration
  Mean Intraocular Pressure in mmHg: 10.2 mmHg
[1]; 90 minutes after administration
  Mean Intraocular Pressure in mmHg: 10.4 mmHg
[1]; 120 minutes after administration
  Mean Intraocular Pressure in mmHg: 14.5 mmHg
[1]; 150 minutes after administration
  Mean Intraocular Pressure in mmHg: 17.0 mmHg
[1]; CONTROL
  Mean Intraocular Pressure in mmHg: 17.5 mmHg
[2]; 0.01%, 5 minutes after administration
  Mean Intraocular Pressure in mmHg: 17.7 mmHg
[2]; 0.01%, 15 minutes after administration
  Mean Intraocular Pressure in mmHg: 16.3 mmHg
[2]; 0.01%, 30 minutes after administration
  Mean Intraocular Pressure in mmHg: 13.7 mmHg
[2]; 0.01%, 60 minutes after administration
  Mean Intraocular Pressure in mmHg: 16.9 mmHg
[2]; 0.01%, 90 minutes after administration
  Mean Intraocular Pressure in mmHg: 15.4 mmHg
[2]; 0.01%, 120 minutes after administration
  Mean Intraocular Pressure in mmHg: 18.2 mmHg
[2]; 0.01%, 150 minutes after administration
  Mean Intraocular Pressure in mmHg: 20.3 mmHg
[2]; 0.01%, CONTROL
  Mean Intraocular Pressure in mmHg: 19.2 mmHg
[2]; 0.03%, 5 minutes after administration
  Mean Intraocular Pressure in mmHg: 13.8 mmHg
[2]; 0.03%, 15 minutes after administration
  Mean Intraocular Pressure in mmHg: 13.3 mmHg
[2]; 0.03%, 30 minutes after administration
  Mean Intraocular Pressure in mmHg: 12.8 mmHg
[2]; 0.03%, 60 minutes after administration
  Mean Intraocular Pressure in mmHg: 13.8 mmHg
[2]; 0.03%, 90 minutes after administration
  Mean Intraocular Pressure in mmHg: 13.8 mmHg
[2]; 0.03%, 120 minutes after administration
  Mean Intraocular Pressure in mmHg: 15.2 mmHg
[2]; 0.03%, 150 minutes after administration
  Mean Intraocular Pressure in mmHg: 16.8 mmHg
[2]; 0.03%, CONTROL
  Mean Intraocular Pressure in mmHg: 19.0 mmHg
[2]; 0.1%, 5 minutes after administration
  Mean Intraocular Pressure in mmHg: 14.1 mmHg
[2]; 0.1%, 15 minutes after administration
  Mean Intraocular Pressure in mmHg: 13.1 mmHg
[2]; 0.1%, 30 minutes after administration
  Mean Intraocular Pressure in mmHg: 11.9 mmHg
[2]; 0.1%, 60 minutes after administration
  Mean Intraocular Pressure in mmHg: 11.3 mmHg
[2]; 0.1%, 90 minutes after administration
  Mean Intraocular Pressure in mmHg: 11.5 mmHg
[2]; 0.1%, 120 minutes after administration
  Mean Intraocular Pressure in mmHg: 17.5 mmHg
[2]; 0.1%, 150 minutes after administration
  Mean Intraocular Pressure in mmHg: 19.0 mmHg
[2]; 0.1%, CONTROL
  Mean Intraocular Pressure in mmHg: 18.7 mmHg
[2]; 0.3%, 5 minutes after administration
  Mean Intraocular Pressure in mmHg: 13.3 mmHg
[2]; 0.3%, 15 minutes after administration
  Mean Intraocular Pressure in mmHg: 12.0 mmHg
[2]; 0.3%, 30 minutes after administration
  Mean Intraocular Pressure in mmHg: 10.9 mmHg
[2]; 0.3%, 60 minutes after administration
  Mean Intraocular Pressure in mmHg: 12.2 mmHg
[2]; 0.3%, 90 minutes after administration
  Mean Intraocular Pressure in mmHg: 12.4 mmHg
[2]; 0.3%, 120 minutes after administration
  Mean Intraocular Pressure in mmHg: 16.0 mmHg
[2]; 0.3%, 150 minutes after administration
  Mean Intraocular Pressure in mmHg: 18.8 mmHg
[2]; 0.3%, CONTROL
  Mean Intraocular Pressure in mmHg: 21.2 mmHg
